According to publication PMC12524618, “Conformational Dynamics of the Active Site Loop in Dihydroorotase Highlighting the Limitations of Loop-In Structures for Inhibitor Docking” (International Journal of Molecular Sciences, 2025):

Experiments:
[1] = biological target: T1, Saccharomyces cerevisiae dihydroorotase (DHOase) (Saccharomyces cerevisiae, UniProt P20051); experiment: spectrophotometric assay of dihydroorotate hydrolysis at […] nm with purified recombinant enzyme; […] inhibition at […]; assay type: biochemical
T1 construct: gene URA4
T1 sequence (P20051 1-364): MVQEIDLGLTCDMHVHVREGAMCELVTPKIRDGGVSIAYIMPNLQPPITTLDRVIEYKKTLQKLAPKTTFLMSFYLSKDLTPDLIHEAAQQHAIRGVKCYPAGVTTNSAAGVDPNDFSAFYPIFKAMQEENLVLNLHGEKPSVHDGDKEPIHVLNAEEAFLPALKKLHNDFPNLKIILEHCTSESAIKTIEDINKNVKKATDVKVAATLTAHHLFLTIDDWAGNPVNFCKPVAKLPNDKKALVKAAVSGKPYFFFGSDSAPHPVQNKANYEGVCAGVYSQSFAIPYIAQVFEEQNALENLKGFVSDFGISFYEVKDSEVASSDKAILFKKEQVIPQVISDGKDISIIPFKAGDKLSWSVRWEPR

[2] = biological target: T1, Saccharomyces cerevisiae dihydroorotase (DHOase); experiment: spectrophotometric assay of dihydroorotate hydrolysis at […] nm with purified recombinant enzyme; assay type: biochemical

Question: `O=C(O)c1[nH]c(=O)[nH]c(=O)c1F` [5-FOA] was tested. Which IC50 [1] did it give?
Answer: The IC50 was greater than 600 µM.

Question: `O=c1c(O)c(-c2cc(O)c(O)c(O)c2)oc2cc(O)cc(O)c12` [myricetin] was tested. Which IC50 [2] did it give?
Answer: Its IC50 is 12.5 ± 0.47 µM.
